Measured values reported in patent EP4722219A1 (Gan & Lee Pharmaceuticals Co., Ltd., priority 2023, dated 2024).

Legend:
Type in all cases: cell-based
LNCaP cells = assay: Inhibition of LNCaP cell proliferation (WST-8); details: LNCaP FGC cells, 96 hours
Method in brief: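 Cells were seeded and cultured overnight at 37 °C, 5% CO2, then exposed for 96 h to compound at 9 concentrations, 5-fold serial dilution from 10 µM final. Viability was read by WST-8 absorbance at 450 nm.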

VCaP cells = assay: Inhibition of VCaP cell proliferation (WST-8); details: 168 hours
Method in brief: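 VCaP cells seeded at 15,000/well in DMEM + 10% FBS, treated next day with nine 5-fold dilutions from 10 µM (final) at 37°C, 5% CO2. Viability read by WST-8 absorbance at 450 nm on day 9.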

AR protein = biological target: T1, AR protein (Homo sapiens, UniProt P10275); assay: AR protein degradation in VCaP cells (Western blot); details: 8h
T1 construct: host or cells: VCaP
T1 sequence (P10275 1-920): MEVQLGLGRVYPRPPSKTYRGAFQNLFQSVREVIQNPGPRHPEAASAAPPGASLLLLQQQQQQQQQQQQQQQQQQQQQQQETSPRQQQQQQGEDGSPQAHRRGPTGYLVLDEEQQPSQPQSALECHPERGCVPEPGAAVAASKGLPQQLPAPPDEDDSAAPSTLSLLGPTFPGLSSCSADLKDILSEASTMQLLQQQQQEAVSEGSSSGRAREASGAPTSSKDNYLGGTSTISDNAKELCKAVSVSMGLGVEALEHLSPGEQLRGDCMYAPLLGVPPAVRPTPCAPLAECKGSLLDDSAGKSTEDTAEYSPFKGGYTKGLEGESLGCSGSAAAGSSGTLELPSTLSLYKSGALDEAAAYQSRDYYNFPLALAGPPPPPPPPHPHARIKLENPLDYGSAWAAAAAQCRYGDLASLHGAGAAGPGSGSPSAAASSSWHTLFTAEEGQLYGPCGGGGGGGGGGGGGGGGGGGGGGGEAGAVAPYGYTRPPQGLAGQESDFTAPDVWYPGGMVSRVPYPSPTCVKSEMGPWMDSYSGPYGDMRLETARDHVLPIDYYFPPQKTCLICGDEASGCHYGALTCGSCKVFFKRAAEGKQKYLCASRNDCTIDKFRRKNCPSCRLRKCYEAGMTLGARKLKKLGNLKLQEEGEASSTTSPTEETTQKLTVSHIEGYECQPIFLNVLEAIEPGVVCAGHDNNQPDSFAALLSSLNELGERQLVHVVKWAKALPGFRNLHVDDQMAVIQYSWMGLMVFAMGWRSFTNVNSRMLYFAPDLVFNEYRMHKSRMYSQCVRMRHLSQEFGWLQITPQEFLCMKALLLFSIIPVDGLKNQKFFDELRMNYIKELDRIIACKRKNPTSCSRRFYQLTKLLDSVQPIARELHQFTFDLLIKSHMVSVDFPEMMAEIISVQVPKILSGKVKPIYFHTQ
Method in brief: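 AR-positive VCaP human prostate cancer cells grown in DMEM with 10% FBS were plated in six-well plates at 3×10^5 cells/well and incubated overnight. Compounds were then added at 1 µL/well alongside a solvent control and incubated for 8h. Lysates in RIPA buffer with protease inhibitor were quantified by BCA and run by SDS-PAGE. AR was detected by Western blot, and degradation was calculated from band grayscale normalized to GAPDH.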

| Compound | Degradation rate of AR protein in VCaP cells (AR protein; 0.5 nM) [%] | Degradation rate of AR protein in VCaP cells (AR protein; 5 nM) [%] | IC50 (LNCaP cells) [µM] | IC50 (VCaP cells) [nM] | IC50 (LNCaP cells; Homo sapiens) [µM] | IC50 (VCaP cells; Homo sapiens) [nM] | AR protein degradation rate at fixed concentration (%) at 0.0005 µM (AR protein; 0.5 nM) [%] | AR protein degradation rate at fixed concentration (%) at 0.005 µM (AR protein; 5 nM) [%] |
| --- | --- | --- | --- | --- | --- | --- | --- | --- |
| COc1cc(O[C@H]2C(C)(C)[C@H](NC(=O)c3ccc(N4CCC(CN5CCC6(CCc7cc(F)c(C(=O)N[C@H]8CCC(=O)NC8=O)cc7O6)CC5)(OC)CC4)cc3)C2(C)C)ccc1C#N [A-P-40] | -8 | 10 |  |  | 6.56 | > 10000 |  |  |
| COc1cc(O[C@H]2C(C)(C)[C@H](NC(=O)c3ccc(N4CCC5(CC4)CC(N4CCC6(CC4)COc4cc7c(cc46)n(C)c(=O)n7C4CCC(=O)NC4=O)C5)nn3)C2(C)C)ccc1C#N (relative stereo) [A-P-14, N-((1r,3r)-3-(4-cyano-3-methoxyphenoxy)-2,2,4,4-tetramethylcyclobutyl)-6-(2-(3-(2,6-dioxopiperidin-3-yl)-1-methyl-2-oxo-2,3-dihydro-1H,6H-spiro[benzofuro[5,6-d]imidazole-7,4'-piperidin]-1'-yl)-7-azaspiro[3.5]nonan-7-yl)pyridazine-3-carboxamide] | 63 | 82 |  |  | 1.1 | 2.2 |  |  |
| COc1cc(O[C@H]2CC[C@H](NC(=O)c3ccc(N4CCC(CN5CCC6(CC5)COc5cc7c(cc56)n(C)c(=O)n7C5CCC(=O)NC5=O)CC4)nn3)CC2)ccc1C#N (relative stereo) [A-P-17] | 81 | 75 |  |  | 91.2 | 72 |  |  |
| COc1cc(O[C@H]2C(C)(C)[C@H](NC(=O)c3ccc(N4CCC(CN5CCC6(CC5)COc5c6ccc(C(=O)N[C@H]6CCC(=O)NC6=O)c5F)CC4)cc3)C2(C)C)ccc1C#N [A-P-83] | 36 | 66 |  |  | 0.71 | 2580 |  |  |
| COc1cc(O[C@H]2C(C)(C)[C@H](NC(=O)c3ccc(N4CCC(N5CC6(CCC7(CC6)COc6c7ccc7c6CN(C6CCC(=O)NC6=O)C7=O)C5)CC4)cc3)C2(C)C)ccc1C#N (stereo partly shown) [A-P-2] |  |  |  |  | 2.89 | 0.06 | 50 | 83 |
| C[C@H]1CC2(CCN(c3ccc(C(=O)N4CCC(CN5CCN6c7ccc(C(=O)N[C@H]8CCC(=O)NC8=O)cc7OC[C@H]6C5)CC4)cc3)CC2)CN1c1ccc(C#N)c(Cl)c1 [A-P-68] | 5 | 33 |  |  | 0.97 | 4.5 |  |  |
| N#Cc1ccc(O[C@H]2CC[C@H](NC(=O)c3ccc(N4CCC(N5CCC6(CC5)CCC5(CC6)COc6c5ccc5c6CN(C6CCC(=O)NC6=O)C5=O)CC4)nn3)CC2)cc1Cl (relative stereo) [A-P-7, N-((1r,4r)-4-(3-chloro-4-cyanophenoxy)cyclohexy 1)-6-(4-(7-(2,6-dioxopiperidin-3-yl)-6-oxo-7,8-dihydro-2H,6H-dipyridyl[2,3-e]isoindole-3,1'-cyclohexane-4',4'"-piperidin]-1"-yl)pyridazine-3-carboxamide] | 79 | 89 |  |  | 1.88 | 6 |  |  |
| COc1cc(O[C@H]2C(C)(C)[C@H](NC(=O)c3ccc(N4CCC(C)(CN5CCC6(CC5)COc5cc7c(cc56)n(C)c(=O)n7C5CCC(=O)NC5=O)CC4)cc3)C2(C)C)ccc1C#N (relative stereo) [A-P-16] | 66 | 83 |  |  | > 90 | 1 |  |  |
| COc1cc(O[C@H]2C(C)(C)[C@H](NC(=O)c3ccc(N4CCC(F)(CN5CCC6(CC5)COc5cc7c(cc56)n(C)c(=O)n7C5CCC(=O)NC5=O)CC4)cc3)C2(C)C)ccc1C#N (stereo partly shown) [A-P-13] |  |  |  |  | 61 | 4.3 | 44 | 77 |
| Cn1c(=O)n(C2CCC(=O)NC2=O)c2ccc3c(c21)OCC31CCN(C2CCN(c3ccc(C(=O)N[C@H]4CC[C@H](Oc5ccc(C#N)c(Cl)c5)CC4)nn3)CC2)CC1 (stereo partly shown) [A-P-23] |  |  |  |  | 22.4 | 0.046 | 85 | 74 |

The next lines start with results.

| Degradation rate of AR protein in VCaP cells (AR protein; 0.5 nM) [%] | Degradation rate of AR protein in VCaP cells (AR protein; 5 nM) [%] | IC50 (LNCaP cells) [µM] | IC50 (VCaP cells) [nM] | Compound | IC50 (LNCaP cells; Homo sapiens) [µM] | IC50 (VCaP cells; Homo sapiens) [nM] | AR protein degradation rate at fixed concentration (%) at 0.0005 µM (AR protein; 0.5 nM) [%] | AR protein degradation rate at fixed concentration (%) at 0.005 µM (AR protein; 5 nM) [%] |
| --- | --- | --- | --- | --- | --- | --- | --- | --- |
| 25 | 49 |  |  | COc1cc(O[C@H]2C(C)(C)[C@H](NC(=O)c3ccc(N4CCC5(CC4)CC(N4CCC6(CCc7cc(C(=O)N[C@H]8CCC(=O)NC8=O)c(F)cc7O6)CC4)C5)cc3)C2(C)C)ccc1C#N [A-P-37, 1'-(7-(4-(((1R,3R)-3-(4-cyano-3-methoxyphenoxy)-2,2,4,4-tetramethylcyclobutyl)carbamoyl)phenyl)-7-azaspiro[3.5]nonan-2-yl)-N-((S)-2,6-dioxopiperidin-3-yl)-7-fluorospiro[chroman-2,4'-piperidin]-6-carboxamide] | 2.23 | 2890 |  |  |
| 14 | 59 | 0.57 | 1230 | N-(1r,4r)-4-(3-chloro-4-cyanophenoxy)cyclohexy 1)-6-(4-(7-(2,6-dioxopiperidin-3-yl))-6-oxo-7,8-dihydro-2H,6H-dipyrido[2,3-e]isoindole-3,1'-cyclohexane-4',4‴-piperidin]-1"-yl)pyridazine-3-carboxamide [A-P-32] |  |  |  |  |
| -21 | -5 |  |  | COc1cc(O[C@H]2C(C)(C)[C@H](NC(=O)c3ccc(N4CCC(C)(CN5CCC6(CCc7cc(F)c(C(=O)N[C@H]8CCC(=O)NC8=O)cc7O6)CC5)CC4)cc3)C2(C)C)ccc1C#N [A-P-38, 1-(1-(4-((1R,3R)-3-((4-cyano-3-methoxyphenoxy)-2,2,4,4-tetramethylcyclobutyl)carbamoyl)phenyl)-4-methylpiperidin-4-methyl)-N-((S)-2,6-dioxopiperidin-3-yl)-6-fluorospiro[chroman-2,4'-piperidin]-7-carboxamide] | 1.49 | > 10000 |  |  |
| 0 | 47 |  |  | COc1cc(O[C@H]2C(C)(C)[C@H](NC(=O)c3ccc(N4CCC(CN5CCC6(CCc7cc(C(=O)N[C@H]8CCC(=O)NC8=O)c(F)cc7O6)CC5)CC4)nn3)C2(C)C)ccc1C#N [A-P-34, 1'-((1-(6-(((1R,3R)-3-(4-cyano-3-methoxyphenoxy)-2,2,4,4-tetramethylcyclobutyl)carbamoyl)pyridazin-3-yl)piperidin-4-yl)methyl)-N-((S)-2,6-dioxopiperidin-3-yl)-7-fluorospiro[chroman-2,4'-piperidin]-6-carboxamide] | 0.87 | 0.29 |  |  |
| 56 | 84 |  |  | COc1cc(O[C@H]2C(C)(C)[C@H](NC(=O)c3ccc(N4CCC(CN5CCC6(CCc7cc(C(=O)N[C@H]8CCC(=O)NC8=O)c(F)cc7O6)CC5)CC4)nc3)C2(C)C)ccc1C#N [A-P-33, 1'-((1-(5-(((1R,3R)-3-(4-cyano-3-methoxyphenoxy)-2,2,4,4-tetramethylcyclobutyl)carbamoyl)pyridin-2-yl)piperidin-4-yl)methyl)-N-((S)-2,6-dioxopiperidin-3-yl)-7-fluorospiro[chroman-2,4'-piperidin]-6-carboxamide] | 1.58 | 450 |  |  |
| -1 | 14 |  |  | COc1cc(O[C@H]2C(C)(C)[C@H](NC(=O)c3ccc(N4CCC(F)(CN5CCC6(CCc7cc(C(=O)N[C@H]8CCC(=O)NC8=O)c(F)cc7O6)CC5)CC4)cc3)C2(C)C)ccc1C#N [A-P-52, 1'-((1-(4-(((1r,3r)-3-(4-cyano-3-methoxyphenoxy)-2,2,4,4-tetramethylcyclobutyl)carbamoyl)phenyl)-4-fluoropiperidin-4-yl)methyl)-N-((S)-2,6-dioxopiperidin-3-yl)-7-fluorospiro[chroman-2,4'-piperidin]-6-carboxamide] | 0.2 | 4240 |  |  |
